Counter-ions that a name gives are not always drawn.
Legend:
[1] = solubility in water / aqueous systems; assay type: physicochemical
[2] = thermal stability of polymorphic form; assay type: physicochemical
[3] = storage stability; assay type: physicochemical
[4] = bioavailability; assay type: in vivo; details: free base is deliberated at physiological pH ranges

In the case of `CC(C)COc1ccc(CNC(=O)N(Cc2ccc(F)cc2)C2CCN(C)CC2)cc1` [pimavanserin, N-(4-fluorophenylmethyl)-N-(1-methylpiperidin-4-yl)-N′-(4-(2-methylpropyloxy)phenylmethyl)carbamide], the solubility in water ([1]; water) is reported as “low”.

In the case of `CC(C)COc1ccc(CNC(=O)N(Cc2ccc(F)cc2)C2CCN(C)CC2)cc1` [Polymorphic Form C], the “thermostability of the polymorphic form” value [2] is reported as “thermostabile”.

In the case of `CC(C)COc1ccc(CNC(=O)N(Cc2ccc(F)cc2)C2CCN(C)CC2)cc1` [Pimavanserin tartrate], the “solubility in aqueous systems” value ([1]; aqueous systems) is reported as “very good”, the storage stability [3] is reported as “high storage stability” and the bioavailability [4] is reported as “high bioavailability”.
